Test results from patent US12042523B2, “Compositions and methods for managing or improving bone disorders, joint disorders, cartilage disorders, or a combination thereof” (Unigen, Inc., priority 2014, dated 2024).
Marks after values point to notes of the source that are not given here.

Tests used:
Type in all cases: in vivo, rat
[1] = tested on: MIA-induced osteoarthritis in Sprague-Dawley rats; assay: Histopathology of femorotibial joint, modified Mankin score, MIA-induced OA model
Protocol: Treatment started a week before MIA injection. […] The standardized blends for each treatment groups are defined as UP446=1A:4S, UP1306=1A:2M and the composition at the given dosage=0.282A:0.308S:0.410M where “A”, “S” and “M” stands for acacia, scutellaria and moms, respectively. On the induction day, isoflurane (Lot #B66H15A, Piramal Enterprise Ltd. Andhra Pradesh, India) anesthetized rats were injected with 0.8 mg of MIA (Lot #A0352046, Acros Organics, New Jersey, USA) in 50 μL saline solution into the intra-articular pocket of left femorotibial (knee) joint using 26 G needle an hour after treatment. Normal control rats were injected with an equal volume of saline. […] Body weights were measured once a week to calculate the respective weekly dosage of each group. The merit of combining UP1306 and UP446 was then evaluated using the Colby's equation (Colby, 1967). Pain sensitivity percent inhibition values were used to determine the calculated efficacy values and compared to the observed percent inhibition values of the composition.
At necropsy, animals were asphyxiated with CO2 and the femorotibial joint was carefully dissected out, fixed in 10% buffered formalin and sent to Nationwide Histology (Veradale, WA, USA) for further histopathology analysis. The fixed specimens were then decalcified with Calci-Clear Rapid for 1 and a half days and embedded in paraffin. Standardized 5 μm serial sections were obtained at the medial and lateral midcondylar level in the sagittal plane and were stained with hematoxylin and eosin (HE) and Safranin O-fast green to enable evaluation of proteoglycan content. A modified Mankin system (Mankin et al., 1981) was used to score structural and cellular alterations of articular components as indications of disease progression and/or treatment efficacy. The histological analysis was conducted by a certified Pathologist at Nationwide Histology.

[2] = tested on: MIA-induced osteoarthritis in Sprague-Dawley rats; assay: Pain sensitivity (paw withdrawal / compression threshold, Randall-Salitto) in MIA-induced OA model; settings: Diclofenac 10, UP1306 400, UP446 250, Composition 650 mg/kg; for Compression threshold (Mean ± SD): oral
Protocol: Animals were provided with fresh water and rodent chow diet # T2018 (Harlan Teklad, 370W, Kent, WA, USA) ad libitum and were housed in a temperature-controlled room (22.2° C.) on a 12 h light-dark cycle.

[3] = tested on: MIA-induced osteoarthritis in Sprague-Dawley rats; assay: Bone histomorphometry (Micro CT) in therapeutic MIA induced osteoarthritis model
Protocol: Male Sprague-Dawley (SD) rats weighing 170˜230 g (6 weeks of age) were purchased and acclimated for one week. […] Anesthetized rats were injected with 0.8 mg of MIA in 50 μl saline solution into the intra-articular pocket. One week after MIA induction, samples were administrated daily with gastric tube for 6 weeks. Bone histomorphometry was evaluated on both femur and tibia per knee joint in rats from the MIA-induced osteoarthritis model by Micro CT scan using an Inveon™ unit (Siemens Healthcare USA, Inc., Pennsylvania, USA) at Korea Basic science institute, Ochang, Korea. BMD was used as an indicator of osteoporosis and fracture risk; BV/TV as an indicator of trabecular bone volume refers to the ratio of the trabecular bone volume to the total volume; BS/BV as an indicator of trabecular turnover refers to the ratio of the trabecular bone surface to the trabecular bone volume of a region of interest.

[4] = tested on: urine CTX-II (C-telopeptide of type II collagen); assay: Urine CTX-II ELISA in MIA-induced OA model
Protocol: Treatment started a week before MIA injection. […] On the induction day, isoflurane (Lot #[…] Enterprise Ltd. […], India) anesthetized rats were injected with 0.8 mg of MIA (Lot #A0352046, Acros Organics, New Jersey, USA) in 50 μL saline solution into the intra-articular pocket of left femorotibial (knee) joint using 26 G needle an hour after treatment. Normal control rats were injected with an equal volume of saline. […] Body weights were measured once a week to calculate the respective weekly dosage of each group. The merit of combining UP1306 and UP446 was then evaluated using the Colby's equation (Colby, 1967). Pain sensitivity percent inhibition values were used to determine the calculated efficacy values and compared to the observed percent inhibition values of the composition. CTX-II ELISA was performed according to the kit manufacturer's specifications. […] Rat urine samples were thawed on ice and diluted 1:3 with Sample Diluent. 100 μL of samples and standards were added to a 96-well plate pre-coated with CTX-II antibody. The plate was covered and incubated at 37° C. for 2 hours. The liquid was aspirated from each well, then 100 μL of Detection Reagent A working solution was added to each well. The plate was covered and incubated at 37° C. for 1 hour. The solution was aspirated from each well and the plate was washed three times with 1× Wash Buffer. 100 μL of Detection Reagent B working solution was added to each well, then the plate was covered and incubated at 37° C. for 1 hour. The solution was aspirated from each well and the plate was washed five times with 1× Wash Buffer. 90 μL of Substrate Solution was added to each well, then the plate was covered and incubated at 37° C. for 30 minutes. […] Stop Solution was added to each well, and the optical density at 450 nm was detected using a Tecan Genios plate reader. CTX-II concentrations for each sample were determined by multiplying by the dilution factor and fitting the value to the standard curve. To offset the variations in urine flow between rats, values were normalized to total urine protein.

[5] = MIA 0.8 mg/joint, Diclofenac 10, UP1306 400, UP446 250, Composition 650 mg/kg
[6] = treatment from one week after MIA, daily 6 weeks, Diclofenac 10 mg/kg, GM 500 mg/kg, mean ± SD
[7] = MIA-induced OA rats, urine, week 5 of daily oral treatment

With `O=C(O)Cc1ccccc1Nc1c(Cl)cccc1Cl` [Diclofenac] the “reduction in overall structural abnormality” value ([1]; AM 400, UP446 250, AU 650, Diclofenac 10 mg/kg) was 51.4%, the “reduction in matrix GAG loss (Safranin O)” value ([1]; Diclofenac 10, AM 400, UP446 250, AU 650 mg/kg) was 46.0% and the “Bone at Articular surfaces (modified Mankin score 0-6)” value [1, 5] was 0.70 ± 0.24. The “Fibrovascular proliferation (modified Mankin score 0-6)” value [1, 5] was 1.55 ± 0.69, the “Inflammation/ Cellular infiltration (modified Mankin score 0-6)” value [1, 5] was 0.55 ± 0.15 and the “Matrix GAGs (modified Mankin score 0-6)” value [1, 5] was 1.44 ± 0.38. The “Structural abnormality (modified Mankin score 0-6)” value [1, 5] was 1.23 ± 0.36, the “Percent change of vehicle, Pain sensitivity inhibition” value ([2]; Baseline) was 0.9% and the “Compression threshold (Mean ± SD)” value ([2]; Baseline) was 244.1 ± 3.8. The “Percent change of vehicle, Pain sensitivity inhibition” value ([2]; Week-1) was 40.4* %, the “Compression threshold (Mean ± SD)” value ([2]; Week-1) was 190.8 ± 1.1 and the “Percent change of vehicle, Pain sensitivity inhibition” value ([2]; Week-2) was 28.8* %. For the same compound, the “Compression threshold (Mean ± SD)” value ([2]; Week-2) was 171.8 ± 0.6, the “Percent change of vehicle, Pain sensitivity inhibition” value ([2]; Week-3) was 31.2* % and the “Compression threshold (Mean ± SD)” value ([2]; Week-3) was 170.1 ± 2.2. The “Percent change of vehicle, Pain sensitivity inhibition” value ([2]; Week-4) was 30.8* %, the “Compression threshold (Mean ± SD)” value ([2]; Week-4) was 171.6 ± 0.6 and the “Percent change of vehicle, Pain sensitivity inhibition” value ([2]; Week-5) was 31.0* %. The “Compression threshold (Mean ± SD)” value ([2]; Week-5) was 170.9 ± 1.1, the “BV/TV compared with vehicle group” value ([3]; therapeutic MIA model) was “decreasing tendency” and the “BMD (mg/cm3)” value [3, 6] was 896.2 ± 29.4 mg/cm3. The BS/BV [3, 6] was 9.11 ± 1.41, the “BV/TV (%)” value [3, 6] was 65.35 ± 7.75% and the “Ratio (CTX-II/Protein), uCTX-II normalized to total protein” value [4, 7] was 64.41. For the same compound, the “uCTX-II (Mean ± SD)” value [4, 7] was 304 ± 233 ng/L and the “reduction in urine CTX-II” value ([4]; after 5 weeks of daily oral treatment, diclofenac 10, UP1306+UP446 650, UP1306 400, UP446 250 mg/kg) was 31.33%.
